Values after ≈ are worked out from the molar mass of the structure shown. Where two headings read alike, the source gives them in different places. Square brackets hold non-standard residues; d marks the D form. Peptide text beside a SMILES is read from it. Cha = N[C@@H](CC1CCCCC1)C(=O)O
What was measured:
[1] = system: E. coli ATCC 25922 (DSM 1103) strain; assay type: cell-based; settings: ATCC 25922, 36 h
Method: E. coli strains were cultivated on either agar or liquid 1× Mueller Hinton broth unless specified. MIC assays were performed in duplicate in 96-well microtiter plates on the basis of the protocol recommended by the Clinical and Laboratory Standards Institute. Briefly, a mix of 5-6 fresh (less than 36 hours) colonies grown on MH agar plates were inoculated in 3 ml of MH broth and incubated for about 16 h at 37° C. under agitation. 30 μl of this saturated culture were inoculated in 3 ml of fresh medium and allowed to grow until OD600 nm of about 0.6-0.8. Dilution to an OD600 nm of 0.002 was made in MH broth. Within a time laps not exceeding 30 min, 50 μl of this cell suspension was added to 50 μl of MH broth (containing or not the peptide/antibiotic diluted in MH broth) in wells of a 96-well round bottom microwell plate (Greiner; final cell density about 2 to 5×10^5 cfu/ml). Plates were incubated at 37° C. for 18-24 h and final turbidity of each well was measured at 620 nm using a Multiskan FC microplate reader (Thermo Scientific). MIC was defined as the minimal antibiotic concentration that result in no increase of turbidity at that time. Each MIC determination was performed in duplicate and at least in two independent experiments. Plating of 75 μl of the content of the wells of interest on LB Agar plates was used to determine the MBC that is defined by a decrease of at least 99.9% of cell viability as compared to the number of viable cells in the inoculum (about 2 to 5×10^4 cfu).
The antimicrobial activities of these peptides have been tested against the E. coli ATCC 25922 (DSM 1103) strain in 1× Mueller-Hinton broth as mentioned above.
The antimicrobial activities of these peptides and controls have been tested against the E. coli ATCC 25922 (DSM 1103) strain in 1× Mueller-Hinton broth.

[2] = system: E. coli infected kenny^drawing 2831 flies; experiment: In vivo survival assay, D. melanogaster infection model; set-up: species or system Drosophila melanogaster; settings: 18.4 nl of 1 mM peptide 1 and 24 h after infection; for fold increased survival of infected flies 96 h after injection: E. coli infected kenny flies, versus PBS
Method: FIG. 2 concerns the in vivo survival assay using Drosophila melanogaster infection model. Seven-day-old female kenny^C02831 flies were infected by septic injury with a thin tungsten needle previously dipped in an E. coli suspension diluted in PBS and kept at 29° C. 1 and 24 hours after infection, 18.4 nl of peptides (1 mM) diluted in PBS or PBS alone were injected into the flies body cavity. (A) Survival curves. (B) Survival rate after 96 hours. (C) Lethal time 50% (LT50). Data represent means±standard errors of at least 3 independent experiments, each containing three groups of 20 flies. One-Way ANOVA test: *P<0.05, **P<0.01, ***P<0.001. ns: non-significant (P28: Onc112; P30: Onc112-P7; P120: Onc112-P7Scr).
50 ml of E. coli ATCC23754 were grown at 29° C. in LB media up to exponential phase (OD600=0.6-0.8) and centrifuged at 5.000 g for 5 min. The pellet was then diluted in 1 ml of PBS. Immune-deficient kenny^C02831 (Bou Aoun, R., Hetru, C., Troxler, L., Doucet, D., Ferrandon, D., and Matt, N. (2011). Analysis of thioester-containing proteins during the innate immune response of Drosophila melanogaster. J Innate Immun 3, 52-64) flies were raised at 25° C. with 60% humidity on standard cornmeal-agar medium. Seven-day-old female flies were infected by septic injury with a thin tungsten needle previously dipped in an E. coli suspension diluted in PBS and kept at 29° C. 1 and 24 hours after infection, 18.4 nl of peptides (1 mM) diluted in PBS or PBS alone were injected into the fly body cavity (Nanoject II apparatus; Drummond Scientific). Because log-rank analysis can only compare two survival curves at a time in the same experiment, we decided to compute the median lethal time 50 (LT50) and the survival rate at 96 hours to perform One-way ANOVA statistical analysis.

E. coli = settings: cited from earlier work
E. coli D22 strain = experiment: microbe, parasite or virus in culture; assay type: cell-based; settings: for antibacterial activity, in words: E. coli D22, microdilution broth assay
E coli β SC = target: T1, E coli β SC (Escherichia coli, UniProt P0A988); experiment: Co-immunoprecipitation of FITC peptides with E. coli β SC; assay type: cell-based; settings: E. coli D22 cells, 1 hour, 16 μM FITC labelled peptide, FIG. 4
T1 construct: endogenous in cells; host or cells: E. coli D22
Method: FIG. 4 concerns the co-immunoprecipitation of FITC-K-Py-P7 peptide with the E coli β SC. E. coli D22 cells were incubated for 1 hour with or without 16 μM of the indicated FITC labelled peptide (lanes 1 and 5: no peptide; lanes 2 and 6: FITC-K-Pyr; lanes 3 and 7: FITC-K-Py-P7Scr; lanes 4 and 8: FITC-K-Py-P7). Lanes 1-4: 5% of the pre-cleared extracts were loaded as input controls. Lanes 5: Ig G sepharose beads pull down of the pre-cleared extracts not exposed to anti-FITC antibody. Lanes 6 to 8: Ig G sepharose beads pull down of the pre-cleared extracts previously incubated with FITC-labelled peptides and then exposed to anti-FITC antibody. Lanes 9-11: purified native β SC protein (lane 9: 5 ng; lane 10: 10 ng; lane 11: 20 ng). Upper image: western blot using the Ab 246, β SC specific monoclonal antibody. Lower image: total protein staining of the same membrane. M: Molecular weight markers.

Human PCNA = Human PCNA (Homo sapiens, UniProt P12004); experiment: ITC, peptide interaction with human PCNA; assay type: binding; settings: ITC 30° C.
Method: The inventors have compared the affinities of the prototypical P7 SC-binding peptide for the bacterial SC and for the eukaryotic functional homolog “Proliferating Cell Nuclear Antigen” PCNA. The same analysis was performed with the DPD1 peptide that contains a well-described specific PCNA Interacting Peptide (PIP) sequence ([…]).

Chain of Human PCNA (P12004 whole entry): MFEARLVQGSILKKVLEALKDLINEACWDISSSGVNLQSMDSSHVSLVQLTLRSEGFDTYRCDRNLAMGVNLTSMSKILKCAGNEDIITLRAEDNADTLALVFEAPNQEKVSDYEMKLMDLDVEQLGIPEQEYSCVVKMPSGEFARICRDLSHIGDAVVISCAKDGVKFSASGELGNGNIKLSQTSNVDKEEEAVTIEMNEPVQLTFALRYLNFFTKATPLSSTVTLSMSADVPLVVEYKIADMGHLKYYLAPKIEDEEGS
T1 sequence (P0A988 whole entry): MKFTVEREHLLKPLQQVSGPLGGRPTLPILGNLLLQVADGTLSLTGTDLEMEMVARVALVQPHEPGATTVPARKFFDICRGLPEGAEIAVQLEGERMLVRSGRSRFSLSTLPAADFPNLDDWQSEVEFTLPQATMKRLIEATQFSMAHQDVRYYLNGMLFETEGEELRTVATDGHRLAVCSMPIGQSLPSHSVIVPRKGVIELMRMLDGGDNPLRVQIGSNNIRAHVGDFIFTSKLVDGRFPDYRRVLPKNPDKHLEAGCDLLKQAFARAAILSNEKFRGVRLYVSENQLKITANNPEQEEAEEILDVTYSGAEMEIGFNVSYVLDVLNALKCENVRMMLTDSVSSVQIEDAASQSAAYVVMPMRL

Compound | MIC [1] | fold increased survival of infected flies 96 h after injection [2] | MIC of previous reports (E. coli) | MIC of previous reports (E. coli; other E. coli strains and/or culture media) | factor by which MIC is lower than that of P122 (E. coli D22 strain) | MBC (E. coli D22 strain; D22 strain) | MIC (μM) (E. coli D22 strain; D22 strain) | MIC (μg/ml) (E. coli D22 strain; D22 strain) | binding of SC within the bacterial cytoplasm (co-immunoprecipitation), in words (E coli β SC) | effect on survival of E. coli infected flies, in words [2] | antibacterial activity, in words (E. coli D22 strain) | interaction with Human PCNA, in words (Human PCNA)
CC[C@H](C)[C@H](NC(=O)[C@@H](CCCNC(=N)N)NC(=O)[C@H](CCCNC(=N)N)NC(=O)[C@@H]1CCCN1C(=O)[C@@H]1CCCN1C(=O)[C@H](CCCNC(=N)N)NC(=O)[C@@H]1CCCN1C(=O)[C@H](CCCNC(=N)N)NC(=O)[C@@H]1CCCN1C(=O)[C@H](CC(C)C)NC(=O)[C@H](Cc1ccc(O)cc1)NC(=O)[C@@H]1CCCN1C(=O)[C@@H]1CCCN1C(=O)[C@H](CCCCN)NC(=O)[C@H](CC(=O)O)NC(=O)[C@@H](N)C(C)C)C(=O)N[C@@H](Cc1ccc(O)cc1)C(=O)N[C@@H](CC(N)=O)C(=O)N[C@H](CCCNC(=N)N)C(N)=O [Peptide P28, reference compound] (H-VDKPPYLPRPRPPR[dR]IYN[dR]-NH2; N-terminus assumed) | 2 to 8 µM | 2.5 fold | 0.82 µM | 2 µg/mL |  |  |  |  |  |  |  | 
CC[C@H](C)[C@H](NC(=O)[C@@H]1CCCN1C(=O)[C@H](CCCNC(=N)N)NC(=O)[C@@H]1CCCN1C(=O)[C@@H]1CCCN1C(=O)[C@@H](NC(=O)[C@@H]1CCCN1C(=O)[C@H](CCCNC(=N)N)NC(=O)[C@@H]1CCCN1C(=O)[C@H](CC(C)C)NC(=O)[C@H](Cc1ccc(O)cc1)NC(=O)[C@H](CO)NC(=O)CNC(=O)[C@H](CCCCN)NC(=O)[C@H](CC(=O)O)NC(=O)[C@@H](NC(=O)[C@H](CCCCN)NC(=O)c1ccc2c(c1)C(=O)OC21c2ccc(O)cc2Oc2cc(O)ccc21)C(C)C)[C@@H](C)O)C(=O)N[C@@H](Cc1ccc(O)cc1)C(=O)N[C@@H](CC(N)=O)C(=O)N[C@@H](CCCNC(=N)N)C(=O)N[C@@H](CC(N)=O)C(=O)NCC(=O)N1CCC[C@H]1C(=O)N[C@@H](CCCNC(=N)N)C(=O)N[C@@H](CCC(N)=O)C(=O)N[C@@H](CC1CCCCC1)C(=O)N[C@@H](CC(=O)O)C(=O)N[C@@H](CC(C)C)C(=O)N[C@@H](Cc1ccccc1)C(=O)O [Peptide P150] |  |  |  |  | 4 to 16 | 128 µg/mL (≈ 33.7 µM) | 16.9 to 33.8 µM | 64 to 128 µg/mL | can efficiently bind SC |  |  | 
CC[C@H](C)[C@H](NC(=O)[C@@H](CCCNC(=N)N)NC(=O)[C@H](CCCNC(=N)N)NC(=O)[C@@H]1CCCN1C(=O)[C@@H]1CCCN1C(=O)[C@H](CCCNC(=N)N)NC(=O)[C@@H]1CCCN1C(=O)[C@H](CCCNC(=N)N)NC(=O)[C@@H]1CCCN1C(=O)[C@H](CC(C)C)NC(=O)[C@H](Cc1ccc(O)cc1)NC(=O)[C@@H]1CCCN1C(=O)[C@@H]1CCCN1C(=O)[C@H](CCCCN)NC(=O)[C@H](CC(=O)O)NC(=O)[C@@H](N)C(C)C)C(=O)N[C@@H](Cc1ccc(O)cc1)C(=O)N[C@@H](CC(N)=O)C(=O)N[C@H](CCCNC(=N)N)C(=O)N[C@@H](CC(N)=O)C(=O)NCC(=O)N1CCC[C@H]1C(=O)N[C@@H](CCCNC(=N)N)C(=O)N[C@@H](CC1CCCCC1)C(=O)N[C@@H](Cc1ccccc1)C(=O)N[C@@H](CCC(N)=O)C(=O)N[C@@H](CC(C)C)C(=O)N[C@@H](CC(=O)O)C(=O)O [Peptide P120] (H-VDKPPYLPRPRPPR[dR]IYN[dR]NGPR[Cha]FQLD-OH) |  |  |  |  |  |  | 0.29 to 0.58 µM | 1 to 2 µg/mL |  | does not statistically differ from that measured with P28 |  | 
CC(=O)N[C@@H](CCC(N)=O)C(=O)N[C@@H](CC1CCCCC1)C(=O)N[C@@H](CC(=O)O)C(=O)N[C@@H](CC(C)C)C(=O)N[C@@H](Cc1ccccc1)C(=O)O [Peptide P7, Ac-QChaDLF-OH, reference compound] (Ac-Q[Cha]DLF-OH) |  |  |  |  |  |  | >357 µM | >256 µg/mL |  | has no effect on fly survival | fails to induce any detectable antibacterial activity | no interaction could be detected
CC[C@H](C)[C@H](NC(=O)[C@@H](CCCNC(=N)N)NC(=O)[C@H](CCCNC(=N)N)NC(=O)[C@@H]1CCCN1C(=O)[C@@H]1CCCN1C(=O)[C@H](CCCNC(=N)N)NC(=O)[C@@H]1CCCN1C(=O)[C@H](CCCNC(=N)N)NC(=O)[C@@H]1CCCN1C(=O)[C@H](CC(C)C)NC(=O)[C@H](Cc1ccc(O)cc1)NC(=O)[C@@H]1CCCN1C(=O)[C@@H]1CCCN1C(=O)[C@H](CCCCN)NC(=O)[C@H](CC(=O)O)NC(=O)[C@@H](N)C(C)C)C(=O)N[C@@H](Cc1ccc(O)cc1)C(=O)N[C@@H](CC(N)=O)C(=O)N[C@H](CCCNC(=N)N)C(=O)N[C@@H](CC(N)=O)C(=O)NCC(=O)N1CCC[C@H]1C(=O)N[C@@H](CCCNC(=N)N)C(=O)N[C@@H](CCC(N)=O)C(=O)N[C@@H](CC1CCCCC1)C(=O)N[C@@H](CC(=O)O)C(=O)N[C@@H](CC(C)C)C(=O)N[C@@H](Cc1ccccc1)C(=O)O [Peptide P30] (H-VDKPPYLPRPRPPR[dR]IYN[dR]NGPRQ[Cha]DLF-OH) | 16 to 32 µM | 4.5 fold |  |  |  |  | 0.15 to 0.29 µM | 0.5 to 1 µg/mL |  | two times higher protective effect than its parental peptide P28 | no increase in the activity | 

— US12098217B2, “Fusion peptides as antimicrobial agents” (CENTRE NATIONAL DE LA RECHERCHE SCIENTIFIQUE, priority 2019, dated 2024)
